Source: ChEMBL document CHEMBL4507291 (2021)

Tests used:
[1] = target: Rho-associated protein kinase 2 (Homo sapiens) (UniProt O75116)
[2] = target: Focal adhesion kinase 1 (Homo sapiens) (UniProt Q05397)
[3] = target: Mitogen-activated protein kinase 14 (Homo sapiens) (UniProt Q16539)
[4] = target: Mitogen-activated protein kinase 8 (Homo sapiens) (UniProt P45983)
[5] = target: Epithelial discoidin domain-containing receptor 1 (Homo sapiens) (UniProt Q08345)
[6] = target: Cyclin-dependent kinase 11A (Homo sapiens) (UniProt Q9UQ88)
Cyclin-dependent kinase 11A (Homo sapiens), sequence (Q9UQ88 whole entry): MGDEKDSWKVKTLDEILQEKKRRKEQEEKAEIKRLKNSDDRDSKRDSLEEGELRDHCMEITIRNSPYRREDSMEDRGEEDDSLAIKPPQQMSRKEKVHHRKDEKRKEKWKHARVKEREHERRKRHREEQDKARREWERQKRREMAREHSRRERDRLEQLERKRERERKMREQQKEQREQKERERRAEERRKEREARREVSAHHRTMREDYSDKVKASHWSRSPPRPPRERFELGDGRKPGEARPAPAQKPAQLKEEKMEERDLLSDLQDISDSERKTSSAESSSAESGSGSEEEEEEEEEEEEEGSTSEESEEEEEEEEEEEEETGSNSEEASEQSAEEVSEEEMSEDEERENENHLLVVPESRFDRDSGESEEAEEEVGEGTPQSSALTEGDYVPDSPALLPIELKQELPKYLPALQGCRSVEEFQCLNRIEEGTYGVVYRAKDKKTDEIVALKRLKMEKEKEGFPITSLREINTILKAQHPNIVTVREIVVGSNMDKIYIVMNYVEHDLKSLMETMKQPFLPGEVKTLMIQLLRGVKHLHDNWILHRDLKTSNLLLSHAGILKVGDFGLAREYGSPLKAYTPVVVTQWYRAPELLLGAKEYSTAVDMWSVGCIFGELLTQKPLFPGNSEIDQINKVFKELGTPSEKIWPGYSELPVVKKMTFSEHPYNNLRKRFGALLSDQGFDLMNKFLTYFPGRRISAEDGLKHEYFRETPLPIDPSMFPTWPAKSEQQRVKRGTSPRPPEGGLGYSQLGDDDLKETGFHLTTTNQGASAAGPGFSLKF

[7] = target: Testis-specific serine/threonine-protein kinase 1 (Homo sapiens) (UniProt Q9BXA7)
Testis-specific serine/threonine-protein kinase 1 (Homo sapiens), sequence (Q9BXA7 whole entry): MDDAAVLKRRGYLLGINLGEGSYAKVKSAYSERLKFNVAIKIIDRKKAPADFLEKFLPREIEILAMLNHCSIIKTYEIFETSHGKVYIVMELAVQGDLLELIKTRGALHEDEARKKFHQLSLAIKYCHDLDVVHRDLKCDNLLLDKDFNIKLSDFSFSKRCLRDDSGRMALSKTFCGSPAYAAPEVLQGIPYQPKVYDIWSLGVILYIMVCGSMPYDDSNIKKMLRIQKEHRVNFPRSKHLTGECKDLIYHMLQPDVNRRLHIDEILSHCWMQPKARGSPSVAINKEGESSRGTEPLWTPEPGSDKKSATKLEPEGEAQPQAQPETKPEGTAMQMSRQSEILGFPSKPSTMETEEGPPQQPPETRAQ

[8] = target: Tyrosine-protein kinase Blk (Homo sapiens) (UniProt P51451)
[9] = target: T1, Inhibitor of nuclear factor kappa-B kinase subunit alpha (Homo sapiens) (UniProt O15111)
T1 sequence (whole entry): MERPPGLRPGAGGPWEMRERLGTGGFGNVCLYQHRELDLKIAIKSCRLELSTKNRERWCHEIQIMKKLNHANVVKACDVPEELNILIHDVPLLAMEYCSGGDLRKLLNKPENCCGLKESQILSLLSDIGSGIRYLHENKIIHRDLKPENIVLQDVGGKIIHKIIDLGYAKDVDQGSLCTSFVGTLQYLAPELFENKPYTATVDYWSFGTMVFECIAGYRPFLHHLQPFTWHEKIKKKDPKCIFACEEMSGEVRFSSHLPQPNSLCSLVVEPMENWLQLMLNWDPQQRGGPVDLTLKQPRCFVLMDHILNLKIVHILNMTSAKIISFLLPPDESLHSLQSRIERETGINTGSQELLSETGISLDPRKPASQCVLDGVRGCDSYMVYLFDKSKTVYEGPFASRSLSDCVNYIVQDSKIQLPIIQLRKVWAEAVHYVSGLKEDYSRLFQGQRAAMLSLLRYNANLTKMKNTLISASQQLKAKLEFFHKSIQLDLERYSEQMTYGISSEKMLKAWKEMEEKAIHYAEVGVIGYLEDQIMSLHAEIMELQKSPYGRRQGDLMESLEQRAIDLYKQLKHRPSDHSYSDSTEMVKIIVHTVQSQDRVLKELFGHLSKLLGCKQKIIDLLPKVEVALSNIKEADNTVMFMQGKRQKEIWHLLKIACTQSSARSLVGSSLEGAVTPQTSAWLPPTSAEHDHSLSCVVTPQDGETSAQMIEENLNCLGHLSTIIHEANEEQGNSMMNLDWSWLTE

[10] = target: Serine/threonine-protein kinase Nek10 (Homo sapiens) (UniProt Q6ZWH5)
Serine/threonine-protein kinase Nek10 (Homo sapiens), sequence (Q6ZWH5 whole entry): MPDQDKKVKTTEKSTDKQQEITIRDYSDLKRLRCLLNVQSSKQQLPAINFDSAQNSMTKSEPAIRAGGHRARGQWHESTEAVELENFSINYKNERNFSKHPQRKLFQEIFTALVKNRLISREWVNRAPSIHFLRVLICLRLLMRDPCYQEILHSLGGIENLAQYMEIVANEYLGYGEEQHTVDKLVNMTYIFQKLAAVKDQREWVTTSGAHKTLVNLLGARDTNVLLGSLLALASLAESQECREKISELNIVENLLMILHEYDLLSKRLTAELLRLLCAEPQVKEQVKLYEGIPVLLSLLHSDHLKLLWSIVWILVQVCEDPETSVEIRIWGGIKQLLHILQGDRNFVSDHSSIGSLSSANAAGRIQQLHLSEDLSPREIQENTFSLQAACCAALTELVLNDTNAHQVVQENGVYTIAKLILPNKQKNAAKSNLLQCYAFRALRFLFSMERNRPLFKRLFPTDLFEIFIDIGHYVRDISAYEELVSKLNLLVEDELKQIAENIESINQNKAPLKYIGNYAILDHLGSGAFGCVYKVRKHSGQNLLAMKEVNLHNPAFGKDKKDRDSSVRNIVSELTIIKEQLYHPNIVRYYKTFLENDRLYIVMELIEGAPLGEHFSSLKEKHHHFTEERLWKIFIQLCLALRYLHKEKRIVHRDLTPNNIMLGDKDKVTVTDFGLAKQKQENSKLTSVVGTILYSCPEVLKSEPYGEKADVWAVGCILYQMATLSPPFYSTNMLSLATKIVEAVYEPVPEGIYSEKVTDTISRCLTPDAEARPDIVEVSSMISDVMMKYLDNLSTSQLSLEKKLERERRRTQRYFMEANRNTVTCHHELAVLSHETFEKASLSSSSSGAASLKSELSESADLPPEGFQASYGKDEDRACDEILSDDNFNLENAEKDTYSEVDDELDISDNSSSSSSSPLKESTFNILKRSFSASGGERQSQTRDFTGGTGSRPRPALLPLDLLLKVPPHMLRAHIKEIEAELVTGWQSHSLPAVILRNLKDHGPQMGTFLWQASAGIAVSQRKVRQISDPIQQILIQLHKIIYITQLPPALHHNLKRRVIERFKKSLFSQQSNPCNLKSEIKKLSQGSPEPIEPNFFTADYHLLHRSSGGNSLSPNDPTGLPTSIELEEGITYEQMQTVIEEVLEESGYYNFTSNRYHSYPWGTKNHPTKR

[11] = target: 5-hydroxytryptamine receptor 1E (Homo sapiens) (UniProt P28566); settings: Compound concentration 10.0 uM
[12] = system: Tyrosine-protein kinase ABL1 (Homo sapiens), P00519 [H396P]
[13] = target: T2, Ephrin type-A receptor 8 (Homo sapiens) (UniProt P29322)
T2 sequence (whole entry): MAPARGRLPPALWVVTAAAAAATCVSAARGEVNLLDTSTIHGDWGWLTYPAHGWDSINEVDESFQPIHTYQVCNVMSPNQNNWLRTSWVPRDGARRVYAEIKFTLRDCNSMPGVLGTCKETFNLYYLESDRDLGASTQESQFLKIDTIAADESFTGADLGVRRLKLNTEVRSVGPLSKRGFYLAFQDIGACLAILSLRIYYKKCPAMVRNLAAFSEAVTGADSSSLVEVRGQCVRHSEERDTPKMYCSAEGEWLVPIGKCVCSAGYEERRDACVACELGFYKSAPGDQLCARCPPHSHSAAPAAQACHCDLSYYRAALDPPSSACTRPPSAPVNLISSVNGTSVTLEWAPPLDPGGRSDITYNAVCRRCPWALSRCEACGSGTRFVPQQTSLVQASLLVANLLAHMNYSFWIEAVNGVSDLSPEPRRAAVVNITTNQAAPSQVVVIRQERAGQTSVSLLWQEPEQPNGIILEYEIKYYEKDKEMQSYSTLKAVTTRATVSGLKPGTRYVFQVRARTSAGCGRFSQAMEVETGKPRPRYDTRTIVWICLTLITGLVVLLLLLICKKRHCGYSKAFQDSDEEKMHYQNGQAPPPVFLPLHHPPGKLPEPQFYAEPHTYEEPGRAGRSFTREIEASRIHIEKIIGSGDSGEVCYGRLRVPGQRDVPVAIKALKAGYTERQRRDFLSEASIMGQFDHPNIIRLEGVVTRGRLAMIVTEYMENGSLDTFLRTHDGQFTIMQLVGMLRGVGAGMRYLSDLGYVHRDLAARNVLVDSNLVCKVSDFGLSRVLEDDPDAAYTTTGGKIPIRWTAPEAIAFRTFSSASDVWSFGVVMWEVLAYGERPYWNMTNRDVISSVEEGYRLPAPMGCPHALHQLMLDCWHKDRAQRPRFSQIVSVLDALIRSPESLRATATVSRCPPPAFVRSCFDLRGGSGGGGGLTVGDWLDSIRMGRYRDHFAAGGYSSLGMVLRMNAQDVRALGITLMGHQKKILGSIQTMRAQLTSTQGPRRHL

[14] = target: Cyclin-dependent kinase 4 (Homo sapiens) (UniProt P11802)
[15] = target: 5'-AMP-activated protein kinase catalytic subunit alpha-2 (Homo sapiens) (UniProt P54646)
[16] = target: Cyclin-dependent kinase 5 (Homo sapiens) (UniProt Q00535)
Cyclin-dependent kinase 5 (Homo sapiens), sequence (Q00535 whole entry, looked up): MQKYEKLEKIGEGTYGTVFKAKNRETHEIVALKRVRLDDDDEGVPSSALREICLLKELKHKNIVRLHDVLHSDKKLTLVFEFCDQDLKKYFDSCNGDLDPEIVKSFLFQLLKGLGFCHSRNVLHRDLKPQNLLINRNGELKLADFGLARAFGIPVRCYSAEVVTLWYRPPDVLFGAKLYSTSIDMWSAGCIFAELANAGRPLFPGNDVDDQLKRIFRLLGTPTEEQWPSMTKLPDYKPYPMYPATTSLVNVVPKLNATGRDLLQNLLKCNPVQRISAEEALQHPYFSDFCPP

[17] = target: Ribosomal protein S6 kinase alpha-4 (Homo sapiens) (UniProt O75676)
[18] = target: Serine/threonine-protein kinase 33 (Homo sapiens) (UniProt Q9BYT3)
[19] = target: Calcium/calmodulin-dependent protein kinase type 1B (Homo sapiens) (UniProt Q6P2M8)
[20] = target: Bone morphogenetic protein receptor type-1B (Homo sapiens) (UniProt O00238)
[21] = Compound concentration 100.0 nM
[22] = Compound concentration 1000.0 nM

Rho-associated protein kinase 2 (Homo sapiens), sequence (O75116 whole entry, looked up): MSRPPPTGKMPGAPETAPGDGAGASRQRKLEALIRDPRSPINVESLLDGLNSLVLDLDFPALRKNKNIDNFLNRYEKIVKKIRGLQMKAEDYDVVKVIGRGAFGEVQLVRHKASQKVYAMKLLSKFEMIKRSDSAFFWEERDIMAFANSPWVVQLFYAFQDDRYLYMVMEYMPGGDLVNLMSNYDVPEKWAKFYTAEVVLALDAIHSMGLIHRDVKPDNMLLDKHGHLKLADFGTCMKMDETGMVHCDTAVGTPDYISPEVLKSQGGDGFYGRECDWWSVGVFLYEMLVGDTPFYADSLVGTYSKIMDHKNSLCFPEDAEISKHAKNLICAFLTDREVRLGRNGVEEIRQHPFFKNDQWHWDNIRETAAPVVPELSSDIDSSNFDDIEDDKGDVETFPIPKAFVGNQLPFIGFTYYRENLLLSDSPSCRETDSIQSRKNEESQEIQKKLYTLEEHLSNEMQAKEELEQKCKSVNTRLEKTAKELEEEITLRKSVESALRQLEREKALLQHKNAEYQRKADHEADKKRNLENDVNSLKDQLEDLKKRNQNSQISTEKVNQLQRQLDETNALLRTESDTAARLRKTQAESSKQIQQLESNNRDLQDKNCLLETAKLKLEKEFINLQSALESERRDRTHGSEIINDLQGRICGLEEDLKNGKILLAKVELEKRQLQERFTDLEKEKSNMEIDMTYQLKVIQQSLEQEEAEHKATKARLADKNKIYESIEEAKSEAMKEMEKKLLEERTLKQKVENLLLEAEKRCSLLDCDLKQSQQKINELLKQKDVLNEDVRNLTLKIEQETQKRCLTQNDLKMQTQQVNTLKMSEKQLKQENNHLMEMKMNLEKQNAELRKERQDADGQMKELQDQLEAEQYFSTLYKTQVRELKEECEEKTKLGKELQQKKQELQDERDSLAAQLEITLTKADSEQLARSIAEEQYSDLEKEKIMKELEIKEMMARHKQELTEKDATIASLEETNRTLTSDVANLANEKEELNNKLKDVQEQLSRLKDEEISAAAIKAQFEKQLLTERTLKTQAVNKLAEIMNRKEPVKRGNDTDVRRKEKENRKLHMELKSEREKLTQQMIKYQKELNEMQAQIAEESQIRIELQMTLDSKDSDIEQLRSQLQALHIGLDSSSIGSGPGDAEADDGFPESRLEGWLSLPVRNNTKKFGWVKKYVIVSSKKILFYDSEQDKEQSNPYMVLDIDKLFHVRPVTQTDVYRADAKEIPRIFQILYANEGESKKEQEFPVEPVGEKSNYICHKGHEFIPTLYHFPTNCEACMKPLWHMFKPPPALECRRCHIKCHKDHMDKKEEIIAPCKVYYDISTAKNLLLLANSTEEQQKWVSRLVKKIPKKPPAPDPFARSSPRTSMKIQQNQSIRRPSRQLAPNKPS
Focal adhesion kinase 1 (Homo sapiens), sequence (Q05397 2-1052 limits assumed): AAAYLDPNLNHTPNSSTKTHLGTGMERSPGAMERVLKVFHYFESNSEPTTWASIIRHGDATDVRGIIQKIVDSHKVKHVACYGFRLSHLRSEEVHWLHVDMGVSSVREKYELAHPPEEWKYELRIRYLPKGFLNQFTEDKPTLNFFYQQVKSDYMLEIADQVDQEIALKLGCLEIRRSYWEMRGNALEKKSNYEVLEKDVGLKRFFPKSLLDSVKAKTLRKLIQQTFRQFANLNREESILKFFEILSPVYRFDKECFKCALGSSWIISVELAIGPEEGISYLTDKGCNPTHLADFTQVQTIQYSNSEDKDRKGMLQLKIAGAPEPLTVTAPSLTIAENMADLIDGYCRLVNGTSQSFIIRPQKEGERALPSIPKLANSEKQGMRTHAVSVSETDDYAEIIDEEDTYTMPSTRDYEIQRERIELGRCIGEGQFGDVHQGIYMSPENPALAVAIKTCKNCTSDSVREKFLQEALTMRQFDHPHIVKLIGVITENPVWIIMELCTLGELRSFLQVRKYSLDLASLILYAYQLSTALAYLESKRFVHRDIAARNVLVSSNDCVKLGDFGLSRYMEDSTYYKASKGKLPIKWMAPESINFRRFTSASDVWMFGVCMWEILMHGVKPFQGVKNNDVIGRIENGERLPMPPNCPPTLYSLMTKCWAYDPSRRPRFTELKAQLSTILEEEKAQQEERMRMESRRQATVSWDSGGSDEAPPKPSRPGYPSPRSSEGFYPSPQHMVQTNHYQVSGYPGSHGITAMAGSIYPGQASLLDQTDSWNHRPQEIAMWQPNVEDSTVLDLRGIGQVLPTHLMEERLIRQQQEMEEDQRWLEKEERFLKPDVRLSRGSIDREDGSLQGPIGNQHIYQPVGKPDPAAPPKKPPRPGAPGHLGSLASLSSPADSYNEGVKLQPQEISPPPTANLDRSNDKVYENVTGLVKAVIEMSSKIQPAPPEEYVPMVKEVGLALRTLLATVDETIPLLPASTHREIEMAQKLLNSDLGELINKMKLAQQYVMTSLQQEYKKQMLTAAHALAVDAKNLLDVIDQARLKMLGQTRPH

C[C@@H]1CN(c2cc(-c3n[nH]c4ccc(OC5(C)CC5)cc34)ncn2)C[C@H](C)O1 [MLi-2]
inactive: residual activity [1, 21] 89% | residual activity [2, 21] 81% | residual activity [3, 21] 95% | residual activity [4, 21] 63% | residual activity [5, 21] 91% | residual activity [6, 21] 93% | residual activity [7, 21] 72% | residual activity [8, 21] 83% | residual activity [9, 21] 76% | residual activity [10, 21] 69% | inhibition [11] -7.52% | residual activity [12, 21] 96% | residual activity [13, 21] 82% | residual activity [14, 21] 97% | residual activity [15, 21] 100% | residual activity [16, 21] 100% | residual activity [17, 21] 75% | residual activity [18, 21] 86% | residual activity [19, 21] 67% | residual activity [20, 21] 81%

C[C@@H]1CN(c2cc(-c3nn(C)c4ccc(OC5(C)CC5)cc34)ncn2)C[C@H](C)O1 [MLi-2-NC]
inactive: residual activity [1, 22] 97% | residual activity [2, 22] 95% | residual activity [3, 22] 100% | residual activity [4, 22] 82% | residual activity [5, 22] 68% | residual activity [6, 22] 100% | residual activity [7, 22] 99% | residual activity [8, 22] 95% | residual activity [9, 22] 75% | residual activity [10, 22] 89% | inhibition [11] -0.18% | residual activity [12, 22] 75% | residual activity [13, 22] 100% | residual activity [14, 22] 71% | residual activity [15, 22] 100% | residual activity [16, 22] 100% | residual activity [17, 22] 81% | residual activity [18, 22] 86% | residual activity [19, 22] 100% | residual activity [20, 22] 77%
